Tests used:
chamomile = assay: Test D pre-/postemergence herbicide test; format: in vivo, Matricaria inodora; conditions: for Plant response rating: Chamomile, scale 0 to 100; for Plant response rating, Chamomile: scale 0 to 100 (0 no effect, 100 complete control)
Source text: (§1) Seeds of plant species selected from bluegrass (annual bluegrass, Poa annua), blackgrass (Alopecurus myosuroides), canarygrass (littleseed canarygrass, Phalaris minor), chickweed (common chickweed, Stellaria media), galium (catchweed bedstraw, Galium aparine), bromegrass, downy (downy bromegrass, Bromus tectorum), field poppy (Papaver rhoeas), field violet (Viola arvensis), foxtail, green (green foxtail, Setaria viridis), deadnettle (henbit deadnettle, Lamium amplexicaule), ryegrass, Italian (Italian ryegrass, Lolium multiflorum), kochia (Kochia scoparia), lambsquarters (Chenopodium album), oilseed rape (Brassica napus), pigweed (Amaranthus retroflexus), chamomile (scentless chamomile, Matricaria inodora), Russian thistle (Salsola kali), speedwell (bird's-eye speedwell, Veronica persica), barley, spring (spring barley, Hordeum vulgare), wheat, spring (spring wheat, Triticum aestivum), buckwheat, wild (wild buckwheat, Polygonum convolvulus), mustard, wild (wild mustard, Sinapis arvensis), oat, wild (wild oat, Avena fatua), radish, wild (wild radish, Raphanus raphanistrum), […]), barley, winter (winter barley, Hordeum vulgare), and wheat, winter (winter wheat, Triticum aestivum) were planted into a silt loam soil and treated preemergence with test chemicals formulated in a non-phytotoxic solvent mixture which included a surfactant. At the same time, these species were planted in pots containing Redi-Earth® planting medium (Scotts Company, 14111 Scottslawn Road, Marysville, Ohio 43041) comprising spaghnum peat moss, vermiculite, wetting agent and starter nutrients and treated with postemergence applications of the test chemicals formulated in the same manner. Plants ranged in height from 2 to 18 cm (1- to 4-leaf stage). Treated plants and controls were maintained in a controlled growth environment for 7 to 21 days after which time all species were compared to controls and visually evaluated. Plant response ratings, summarized in Table D, are based on a scale of 0 to 100 where 0 is no effect and 100 is complete control. A dash (-) response means no test result.

chickweed = assay: Test D pre-/postemergence herbicide test; format: in vivo, Stellaria media; conditions: for Plant response rating: Chickweed, scale 0 to 100; for Plant response rating, Chickweed: scale 0 to 100 (0 no effect, 100 complete control)
Source text: as §1

goosegrass = assay: Test C pre-/postemergence herbicide test; format: in vivo, Eleusine indica
Source text: (§2) Seeds of plant species selected from blackgrass (Alopecurus myosuroides), ryegrass, Italian (Italian ryegrass, Lolium multiflorum), wheat (winter wheat, Triticum aestivum), galium (catchweed bedstraw, Galium aparine), corn (Zea mays), crabgrass, large (large crabgrass, Digitaria sanguinalis), foxtail, giant (giant foxtail, Setaria faberii), johnsongrass (Sorghum halepense), lambsquarters (Chenopodium album), morningglory (Ipomoea coccinea), nutsedge, yellow (yellow nutsedge, Cyperus esculentus), pigweed (Amaranthus retroflexus), ragweed (common ragweed, Ambrosia elatior), soybean (Glycine max), barnyardgrass (Echinochloa crus-galli), oilseed rape (Brassica napus), waterhemp (common waterhemp, Amaranthus rudis), kochia (Kochia scoparia), oat, wild (wild oat, Avena fatua), surinam grass (Brachiaria decumbens), foxtail, green (green foxtail, Setaria viridis), goosegrass (Eleusine indica), bromegrass, downy (downy bromegrass, Bromus tectorum), nightshade (eastern black nightshade, Solanum ptycanthum), cocklebur (common cocklebur, Xanthium strumarium), cupgrass, woolly (woolly cupgrass, Eriochloa villosa), bermudagrass (Cynodon dactylon), sunflower, (common oilseed sunflower, Helianthus annuus), Russian thistle (Salsola kali) and velvetleaf (Abutilon theophrasti) were planted into a blend of loam soil and sand and treated preemergence with test chemicals formulated in a non-phytotoxic solvent mixture which included a surfactant. At the same time, plants selected from these crop and weed species and also barley (winter barley, Hordeum vulgare), […]), chickweed (common chickweed, Stellaria media), deadnettle (henbit deadnettle, Lamium amplexicaule), and canarygrass (littleseed canarygrass, Phalaris minor) were planted in pots containing Redi-Earth® planting medium (Scotts Company, 14111 Scottslawn Road, Marysville, Ohio 43041) comprising spaghnum peat moss, vermiculite, wetting agent and starter nutrients and treated with postemergence applications of test chemicals formulated in the same manner. Plants ranged in height from 2 to 18 cm (1- to 4-leaf stage) for postemergence treatments. Treated plants and controls were maintained in a greenhouse for 13 to 15 days, after which time all species were compared to controls and visually evaluated. Plant response ratings, summarized in Table C, are based on a scale of 0 to 100 where 0 is no effect and 100 is complete control. A dash (-) response means no test result.

bromegrass, downy = assay: Test C pre-/postemergence herbicide test; format: in vivo, Bromus tectorum
Source text: as §2

[1] = Preemergence, 31 g ai/ha, scale 0 to 100, 0 is no effect and 100 is complete control
[2] = Preemergence, 62 g ai/ha, scale 0 to 100
[3] = Preemergence, 125 g ai/ha, scale 0 to 100 (0 no effect, 100 complete control)
[4] = Preemergence, 31 g ai/ha, scale 0 to 100 (0 no effect, 100 complete control)
[5] = Preemergence, 250 g ai/ha, scale 0 to 100 (0 no effect, 100 complete control)
[6] = Postemergence, 31 g ai/ha, scale 0 (no effect) to 100 (complete control)
[7] = Postemergence, 62 g ai/ha, scale 0 to 100 (0 no effect, 100 complete control)
[8] = Postemergence, 125 g ai/ha, scale 0 to 100 (0 no effect, 100 complete control)
[9] = Postemergence, 250 g ai/ha, scale 0 to 100 (0 no effect, 100 complete control)
[10] = Postemergence, 16 g ai/ha, scale 0 to 100 (0 no effect, 100 complete control)
[11] = Preemergence, 16 g ai/ha, scale 0 to 100

Row | SMILES | Plant response rating (chamomile; Postemergence, 31 g ai/ha) | Plant response rating (chamomile; Postemergence, 62 g ai/ha) | Plant response rating (chamomile; Postemergence, 125 g ai/ha) | Plant response rating, Chamomile (chamomile; Preemergence, 62 g ai/ha) | Plant response rating, Chamomile (chamomile; Preemergence, 31 g ai/ha) | Plant response rating (chickweed; Postemergence, 31 g ai/ha) | Plant response rating (chickweed; Postemergence, 62 g ai/ha) | Plant response rating (chickweed; Postemergence, 125 g ai/ha) | Plant response rating, Goosegrass (goosegrass; [2]) | Plant response rating, Goosegrass (goosegrass; [3]) | Plant response rating, Bromegrass, Downy (bromegrass, downy; [2]) | Plant response rating, Bromegrass, Downy (bromegrass, downy; [3]) | Goosegrass plant response rating (goosegrass; [4]) | Bromegrass, Downy plant response rating (bromegrass, downy; [4]) | Plant response rating, Goosegrass (goosegrass; [6]) | Plant response rating, Goosegrass (goosegrass; [7]) | Plant response rating, Goosegrass (goosegrass; [8]) | Plant response rating, Bromegrass, Downy (bromegrass, downy; [6]) | Plant response rating, Bromegrass, Downy (bromegrass, downy; [7]) | Plant response rating, Bromegrass, Downy (bromegrass, downy; [8]) | other results
1 | O=C1NCC(c2ccc(F)c(F)c2)C1C(=O)Nc1ccccc1C(F)(F)F (racemic) [Compound 6] | 0 | 0 | 0 | 30 | 0 | 0 | 0 | 10 | – | – | – | – | – | – | – | – | – | – | – | – | Plant response rating (chamomile; Postemergence, 16 g ai/ha): 0; Plant response rating (chamomile; Postemergence, 250 g ai/ha): 0; Plant response rating, Chamomile (chamomile; Preemergence, 16 g ai/ha): 0; Plant response rating (chamomile; Preemergence, 125 g ai/ha): 70; Plant response rating (chamomile; Preemergence, 250 g ai/ha): 90; Plant response rating (chickweed; Postemergence, 16 g ai/ha): 0; Plant response rating (chickweed; Postemergence, 250 g ai/ha): 30
2 | O=C1NCC(c2cccc(OC(F)(F)F)c2)C1C(=O)Nc1ccccc1F (stereo not drawn) [Compound 69] | – | – | – | – | – | – | – | – | 40 | 40 | 0 | 0 | – | – | – | – | – | – | – | – | Goosegrass plant response rating (goosegrass; [1]): 20; Plant response rating (scale of 0 to 100), Goosegrass (goosegrass; Preemergence, 250 g ai/ha): 75; Bromegrass, Downy plant response rating (bromegrass, downy; [1]): 0; Plant response rating (scale of 0 to 100), Bromegrass, Downy (bromegrass, downy; Preemergence, 250 g ai/ha): 0
3 | O=C1NCCC1C(=O)N(c1ccc(F)c(F)c1)c1ccccc1F (stereo not drawn) [Compound 5, N-(3,4-difluorophenyl)-N-(2-fluorophenyl)-2-oxo-3-pyrrolidinecarboxamide] | – | – | – | – | – | – | – | – | 0 | 0 | 0 | 0 | 0 | 0 | – | – | – | – | – | – | Plant response rating, Bromegrass, Downy (bromegrass, downy; [5]): 0
4 | O=C1NCC(c2ccc(F)c(C(F)(F)F)c2)C1C(=O)Nc1cccc(F)c1F (racemic) [Compound 77] | – | – | – | – | – | – | – | – | – | – | – | – | – | – | – | – | – | – | – | – | Plant response rating, Chickweed (chickweed; Preemergence, 62 g ai/ha): 90; Plant response rating, Chickweed (chickweed; Preemergence, 31 g ai/ha): 75; Plant response rating (chickweed; Preemergence, 125 g ai/ha): 100; Plant response rating (chickweed; Preemergence, 250 g ai/ha): 100
5 | O=C1NCC(c2ccc(C(F)(F)F)cc2)C1C(=O)Nc1ccccc1F (stereo not drawn) [Compound 231] | 20 | 25 | 50 | 75 | 75 | 25 | 80 | 80 | – | – | – | – | – | – | – | – | – | – | – | – | Plant response rating (chamomile; Postemergence, 250 g ai/ha): 50; Plant response rating, Chamomile (chamomile; Preemergence, 125 g ai/ha): 80; Plant response rating (chamomile; Preemergence, 250 g ai/ha): 100; Plant response rating (chickweed; Postemergence, 250 g ai/ha): 80; Plant response rating, Chickweed (chickweed; Preemergence, 62 g ai/ha): 85; Plant response rating, Chickweed (chickweed; Preemergence, 125 g ai/ha): 95; Plant response rating, Chickweed (chickweed; Preemergence, 31 g ai/ha): 75; Plant response rating (chickweed; Preemergence, 250 g ai/ha): 90
6 | O=C1NCC(c2cc(F)c(F)cc2F)C1C(=O)Nc1cccc(F)c1F (stereo not drawn) [Compound 50] | 0 | 0 | 0 | 0 | 0 | 15 | 20 | 15 | – | – | – | – | – | – | 25 | 25 | 25 | 0 | 0 | 0 | Plant response rating (chamomile; Postemergence, 16 g ai/ha): 0; Plant response rating, Chamomile (chamomile; Preemergence, 16 g ai/ha): 0; Plant response rating (chamomile; Preemergence, 125 g ai/ha): 5; Plant response rating, Goosegrass (goosegrass; [9]): 25; Plant response rating, Bromegrass, Downy (bromegrass, downy; [9]): 0; Plant response rating (chickweed; Postemergence, 16 g ai/ha): 10; Plant response rating, Chickweed (chickweed; Preemergence, 62 g ai/ha): 0; Plant response rating, Chickweed (chickweed; Preemergence, 16 g ai/ha): 0; Plant response rating, Chickweed (chickweed; Preemergence, 31 g ai/ha): 0; Plant response rating (chickweed; Preemergence, 125 g ai/ha): 0
7 | O=C1NCC(c2ccc(Cl)c(F)c2)C1C(=O)Nc1cccc(F)c1F (stereo not drawn) [Compound 52] | 0 | 0 | 20 | 75 | 20 | 0 | 10 | 15 | 20 | 60 | 0 | 0 | 10 | 0 | 0 | 0 | 20 | 0 | 0 | 0 | Plant response rating (chamomile; Postemergence, 16 g ai/ha): 0; Plant response rating (chamomile; Postemergence, 250 g ai/ha): 20; Plant response rating, Chamomile (chamomile; Preemergence, 16 g ai/ha): 20; Plant response rating (chamomile; Preemergence, 125 g ai/ha): 75; Plant response rating (chamomile; Preemergence, 250 g ai/ha): 80; Plant response rating, Goosegrass (goosegrass; [9]): 20; Plant response rating, Bromegrass, Downy (bromegrass, downy; [9]): 10; Plant response rating, Bromegrass, Downy (bromegrass, downy; [5]): 0; Plant response rating (chickweed; Postemergence, 16 g ai/ha): 0; Plant response rating (chickweed; Postemergence, 250 g ai/ha): 25
8 | O=C1NCC(c2cc(F)c(F)c(F)c2)C1C(=O)Nc1cccc(F)c1F (stereo not drawn) [Compound 48] | – | – | – | – | – | – | – | – | 10 | 15 | 0 | 0 | 0 | 0 | 10 | 10 | 10 | 0 | 0 | 0 | Plant response rating, Goosegrass (goosegrass; [10]): 10; Plant response rating, Goosegrass (goosegrass; [11]): 0; Plant response rating, Bromegrass, Downy (bromegrass, downy; [10]): 0; Plant response rating, Bromegrass, Downy (bromegrass, downy; [11]): 0
9 | O=C1NCC(c2ccc(F)c(Cl)c2)C1C(=O)Nc1ccccc1F (stereo not drawn) [Compound 60] | – | – | – | – | – | – | – | – | 0 | 0 | 0 | 0 | 0 | 0 | 0 | 0 | 0 | 0 | 0 | 5 | –

— patent US10294202B2, “Pyrrolidinones as herbicides” (FMC Corporation, priority 2013, dated 2019)
